From paper PMC2064136 (The Journal of Cell Biology, 2007)

How the values were obtained:
[1] = tested on: mouse liver mitochondria (MLM); assay type: biochemical
[2] = tested on: Bak; settings: ref Willis et al., 2005; cited from earlier work
[3] = tested on: Xenopus egg mitochondria (XEM); assay type: biochemical, Xenopus laevis; settings: for concentration that protected XEM against at least 20 nM tBid: titrations in XEM supplemented with tBid (Fig. 5 A)
[4] = full-length Bcl-xL, tBid 2 h (Fig. 3)

Substance	concentration protecting MLM from tBid [1, 4]	binding to Bak [2]	concentration protecting XEM from tBid [3, 4]	concentration that protected XEM against at least 20 nM tBid [3]	loss of activity relative to full-length Bcl-xL in protecting MLM from tBid ([1]; MLM, tBid (Fig. 3 B))	block of the permeabilizing effect of Bad, Bmf and Hrk BH3 peptides on MLM ([1]; MLM incubated as for XEM with mBad, Bmf, Hrk BH3 peptides (Fig. 4 B))	relative protection of XEM from different BH3 peptides ([3]; Fig. S4)
Bcl-xL: recombinant full-length human Bcl-xL	~20 nM	bind Bak	~20 nM	30 nM	–	–	–
Bcl-xLΔC24: C-terminally truncated form of human Bcl-xL	–	–	–	–	10–30 times	–	–
Mcl-1: recombinant mouse Mcl-1ΔN151ΔC11 with five additional N-terminal residues (GPLGS)	–	bind Bak	–	300 nM	–	also blocked	protected XEM better from the Bad than from the Bim or Puma peptides
